Assay results as given in patent publication US20240051952A1, “HMOX1 INDUCERS” (Mitobridge Inc., priority 2019, published 2024).
“Also recorded” adds a separate entry of the source.

Key:
[1] = tested on: Human Heme Oxygenase-1 (HMOX-1); assay: ELISA assay to measure human heme oxygenase-1 (HMOX-1) in HepG2 lysate; format: cell-based; conditions: fold change of human HMOX1 protein levels relative to DMSO control, HepG2
In short: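 HO-1 protein quantified by chemiluminescent sandwich ELISA against a 2-fold standard series starting at 20 ng/ml. Samples were 1:20-diluted HepG2 lysates made in Triton X-100/EDTA buffer with protease inhibitors. Capture antibody coated at 8 μg/ml, detection antibody used at 200 ng/ml, room-temperature (20 °C) steps.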

HbSS Townes sickle mice = assay: F-cells in HbSS Townes sickle mice; format: in vivo, mouse
From the text: Blood smears were made using heparinized whole blood for F-cells staining. Stained F-cells and total red blood cells were counted on the blood smears in four fields; mean=77 red blood cells/field. F-cells are expressed as a percentage of total red blood cells. Values are means+SD. One-Way ANOVA with Dunnett's Multiple comparison to Vehicle **p≤0.01, ***p≤0.001, ****p≤0.0001
Dosing Scheme of HMOX Inducers to HbSS Townes Sickle Mice
HbSS Townes sickle mice were oral gavaged once daily with Vehicle or the compound of Example 17 listed below for 8 days. To minimize experimental inconsistency, fresh formulation was prepared every day and vortexed prior to drawing test article into syringe for each dosing, and dosing was performed by the same individual throughout the day. The last-day dose was administered by oral gavage 4 hours prior to hemin infusion described below. • 1. […]
F-cells were stained on whole blood smears by the Kleihauer-Betke method using a fetal cell stain kit (Simmler) according to the manufacturer's instructions. F-cells and total erythrocytes were counted in 4 separate microscopic fields at 100× magnification for each mouse. The F-cells were expressed as a percentage of total erythrocytes (i.e., red blood cells). […]

Question: Which “Maximum Fold induction” value [1] does the source give for `Cn1c(Nc2nc3ccccc3o2)nc2cc(C(=O)NCCOCCO)ccc21` [Example 17, 2-(benzo[d]oxazol-2-ylamino)-N-(2-(2-hydroxyethoxy)ethyl)-1-methyl-1H-benzo[d]imidazole-5-carboxamide] here?
Answer: 11-40

Question: And the “percent F-cells vs vehicle” value (HbSS Townes sickle mice; 10, 25, 50 mg/kg PO once daily 8 days)?
Answer: significantly increased; also recorded: percentage of F-cells increase

Question: And the “percent F-cells” value (HbSS Townes sickle mice; all doses tested (10, 25, 50 mg/kg PO, 8 days), % of total red blood cells)?
Answer: 55-70%
